Source: US8100830B2, “Non-therapeutic methods of evaluating skin neurosensitivity, kit and use of a kit for implementing the method” (Societe l'Oreal S.A., priority 2002, dated 2012)

What was measured:
[1] = system: nasogenial sulci of healthy subjects; experiment: Example 1: detection threshold test, increasing capsaicin concentrations C1-C4 applied to the nasogenial sulci against vehicle; format: in vivo, human; conditions: 13 healthy subjects, 3.3×10^−5% to 1×10^−3% in ethanol 10%, water 90%
Method: Capsaicin was tested in the form of aqueous-alcoholic solutions (ethanol 10%, water 90%).
Experimental Design: • Randomized, single-blind study, controlled • 13 healthy subjects of both sexes • 4 capsaicin solutions tested: 3.3×10^−5% (C1), 1×10^−4% (C2), 3.3×10^−4% (C3), 1×10^−3% (C4)
1st step: Simultaneous application to the nasogenial sulci on each side of the face of the vehicle, using impregnated cotton buds, in order to acclimatize the volunteer to the sensations induced by application of the vehicle. Waiting time of 3 minutes.
2nd step: Application of the vehicle to one side and of the capsaicin solution at concentration C1 on the other. After 3 minutes, ask whether the subject has perceived a difference between the 2 sides. If the subject describes an unattractive sensation on the side which has received the capsaicin, stop the test and allocate C1 as the detection threshold. If not, go immediately to step 3.
3rd step: Application of solution C2 to the side which has received the vehicle in […] and of the vehicle to the other side. After 3 minutes, ask whether the subject has perceived a difference between the 2 sides. If the subject describes a particular sensation on the side which has received the capsaicin, stop the test and allocate C2 as the detection threshold. If not, go immediately to step 4. […]

[2] = format: physicochemical
Excerpt: When the peripheral nervous system stimulant is capsaicin, a preferred vehicle is an aqueous-alcoholic solution, advantageously an aqueous-ethanolic solution, containing from 1% to 50% of ethanol in water, advantageously from 5% to 20%, preferably from 8% to 15% and more preferably 10%.

[3] = system: skin of a non-selective population of 150 women; experiment: Example 7: skin neurosensitivity threshold of 150 women with the kit of Example 3 (capsaicin solutions C1-C5); format: in vivo, human
Method: This kit allows approximately 50 instances of use and comprises in a box (B) the following elements: • 1. a holder P allowing […] bottles as described in section 2 of this list to be held upright; • 2. 5 bottles F3 of 20 ml containing respectively 15 ml of solutions C1-C5 (3.16×10^−5% (C1), 1×10^−4% (C2), 3.16×10^−4% (C3), 1×10^−3% (C4) and 3.16×10^−3% (C5)) and a bottle F3T containing 15 ml of a 10% aqueous-alcoholic solution T; these bottles are shown in FIG. 2 and correspond to those defined in section 4 of Example 2; • 3. 80 standard cotton buds CT; • 4. a usage note containing the following elements: • a) use instructions for the implementation of the test, reproducing the protocol of Example 1, using the cotton buds and the bottles F3C1-5 and F3T; the bottles must be stored at 4° C. between two instances of use and discarded after one week of use. • b) a calibration system (atlas) allowing interpretation of the results (C1: excessively sensitive skin; C2: highly sensitive skin; C3: moderately sensitive skin; C4: relatively insensitive skin; C5: virtually insensitive skin; C5 not detected: completely insensitive skin).
Use of the Kit of Example 3 to Determine the Skin Neurosensitivity Threshold of 150 Women:
Study performed in a single-blind procedure on a non-selective population of 150 women aged from 18 to 60 years living in Paris or the surrounding region.
It is interesting to note that the sensations reported at the level of the detection threshold (characterized by a sensation detected on the side where the capsaicin was applied, lasting for at least 30 seconds) are highly varied (presence, pins and needles, stinging, hotness, etc.)

[4] = 109 women who detected a concentration, intensity scale 1 to 5

Which “tolerance of the test (pain) as evaluated by the subjects” value [1] does the source give for `COc1cc(CNC(=O)CCCC/C=C/C(C)C)ccc1O` [capsaicin] here?
The value was “absolutely painless for all of the 13 subjects”.

What about the “stability over time of aqueous-ethanolic solutions” value [2] of the same compound?
The value was “particularly stable over time”.

What about the delay before appearance of the sensation, maximum ([3]; 74 of the 150 subjects) of the same compound?
Its delay before appearance of the sensation, maximum is 120 s.

What about the delay before appearance of the sensation, minimum ([3]; 74 of the 150 subjects) of the same compound?
The delay before appearance of the sensation, minimum was 60 s.

And the “delay before appearance of the sensation, mean” value ([3]; 74 of the 150 subjects, at the detection threshold)?
The value was 79.9 s.

What about the “sensations at level 2 (slight but perceptible) at the detected concentration” value [3, 4] of the same compound?
The value was 95%.

And the “sensations at level 3 (moderately clearly perceptible) at the detected concentration” value [3, 4]?
Its value is 5%.

And the “sensations of level 4 (substantial) or painful at the detected concentration” value [3, 4]?
The value was “No sensation of level 4 (“substantial”) or (“painful”) was reported”.

And the “subjects who detected C1, C2 or C3 (sensitive to highly sensitive population)” value ([3]; 150 women, C1 3.16×10^−5%, C2 1×10^−4%, C3 3.16×10^−4%)?
The value was 56%.

What about the “subjects who detected C4 or C5 or did not detect any concentration (virtually or completely insensitive population)” value ([3]; 150 women, C4 1×10^−3%, C5 3.16×10^−3%) of the same compound?
Its value is 44%.

And the “women who detected a concentration” value ([3]; of 150 women, C1-C5)?
Its value is 109.
